What all share (experiment): biochemical
What all share (design): SelectScreen Z'-LYTE purified kinase panel, per cent inhibition, mean of two points

One test has as its target T1, ACVR1B (ALK4) (Homo sapiens, UniProt P36896).
T1 sequence (P36896 1-505): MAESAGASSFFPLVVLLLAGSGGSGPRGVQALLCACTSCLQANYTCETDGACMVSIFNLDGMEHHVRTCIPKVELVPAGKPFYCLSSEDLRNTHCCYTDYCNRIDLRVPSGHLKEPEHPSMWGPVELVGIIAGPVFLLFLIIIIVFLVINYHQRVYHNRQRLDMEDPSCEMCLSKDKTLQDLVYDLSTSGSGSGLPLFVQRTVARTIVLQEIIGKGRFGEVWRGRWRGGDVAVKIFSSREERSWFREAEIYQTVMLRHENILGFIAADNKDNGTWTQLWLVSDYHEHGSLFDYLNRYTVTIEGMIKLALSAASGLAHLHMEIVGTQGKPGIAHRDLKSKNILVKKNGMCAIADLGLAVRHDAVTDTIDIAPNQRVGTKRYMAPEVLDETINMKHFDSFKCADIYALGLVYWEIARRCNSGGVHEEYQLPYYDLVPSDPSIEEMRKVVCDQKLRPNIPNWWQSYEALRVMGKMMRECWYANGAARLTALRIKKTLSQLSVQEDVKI
The conditions noted are these: (μM)=Km app.

The next test concerns the target T2, AURKA (Aurora A) (Homo sapiens, UniProt O14965).
T2 sequence (O14965 1-403): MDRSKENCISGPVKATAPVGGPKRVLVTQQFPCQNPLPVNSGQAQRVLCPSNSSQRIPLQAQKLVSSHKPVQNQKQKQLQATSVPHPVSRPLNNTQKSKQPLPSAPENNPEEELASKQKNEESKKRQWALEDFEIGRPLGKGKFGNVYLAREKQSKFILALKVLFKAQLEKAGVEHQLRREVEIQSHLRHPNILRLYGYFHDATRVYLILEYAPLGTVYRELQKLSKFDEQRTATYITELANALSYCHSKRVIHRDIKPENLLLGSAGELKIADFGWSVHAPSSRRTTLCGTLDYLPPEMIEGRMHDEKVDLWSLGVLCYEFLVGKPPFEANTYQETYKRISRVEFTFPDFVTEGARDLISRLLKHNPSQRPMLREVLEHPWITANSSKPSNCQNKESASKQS
The conditions noted are these: (μM)=Km app.

Another test concerns the target T3, IKBKB (IKK beta) (Homo sapiens, UniProt O14920).
T3 sequence (O14920 1-756): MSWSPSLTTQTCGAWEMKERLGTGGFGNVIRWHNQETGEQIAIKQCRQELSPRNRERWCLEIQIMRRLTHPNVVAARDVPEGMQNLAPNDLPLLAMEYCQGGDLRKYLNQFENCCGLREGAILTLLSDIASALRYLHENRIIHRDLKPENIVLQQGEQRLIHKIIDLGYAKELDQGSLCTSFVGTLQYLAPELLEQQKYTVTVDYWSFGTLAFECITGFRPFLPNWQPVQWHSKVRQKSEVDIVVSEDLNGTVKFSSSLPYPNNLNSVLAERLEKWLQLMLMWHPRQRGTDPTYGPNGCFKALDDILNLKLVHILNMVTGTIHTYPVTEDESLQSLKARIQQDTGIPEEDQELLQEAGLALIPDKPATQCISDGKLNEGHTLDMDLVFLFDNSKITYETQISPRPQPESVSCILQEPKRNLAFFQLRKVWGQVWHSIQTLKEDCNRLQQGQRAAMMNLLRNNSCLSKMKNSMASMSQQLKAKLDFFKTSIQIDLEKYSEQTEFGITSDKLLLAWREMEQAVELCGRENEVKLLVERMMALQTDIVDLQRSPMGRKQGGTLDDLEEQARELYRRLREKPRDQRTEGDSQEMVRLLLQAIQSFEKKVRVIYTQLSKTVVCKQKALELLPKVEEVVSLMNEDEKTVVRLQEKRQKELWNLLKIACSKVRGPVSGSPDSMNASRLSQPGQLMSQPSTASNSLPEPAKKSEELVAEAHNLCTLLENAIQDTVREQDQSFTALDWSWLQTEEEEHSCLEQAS
The conditions noted are these: (μM)=Km app.

For the next test, the target named is JAK1 (Homo sapiens, UniProt P23458). The conditions noted are these: (μM)=Km app.
JAK1, sequence (P23458 whole entry): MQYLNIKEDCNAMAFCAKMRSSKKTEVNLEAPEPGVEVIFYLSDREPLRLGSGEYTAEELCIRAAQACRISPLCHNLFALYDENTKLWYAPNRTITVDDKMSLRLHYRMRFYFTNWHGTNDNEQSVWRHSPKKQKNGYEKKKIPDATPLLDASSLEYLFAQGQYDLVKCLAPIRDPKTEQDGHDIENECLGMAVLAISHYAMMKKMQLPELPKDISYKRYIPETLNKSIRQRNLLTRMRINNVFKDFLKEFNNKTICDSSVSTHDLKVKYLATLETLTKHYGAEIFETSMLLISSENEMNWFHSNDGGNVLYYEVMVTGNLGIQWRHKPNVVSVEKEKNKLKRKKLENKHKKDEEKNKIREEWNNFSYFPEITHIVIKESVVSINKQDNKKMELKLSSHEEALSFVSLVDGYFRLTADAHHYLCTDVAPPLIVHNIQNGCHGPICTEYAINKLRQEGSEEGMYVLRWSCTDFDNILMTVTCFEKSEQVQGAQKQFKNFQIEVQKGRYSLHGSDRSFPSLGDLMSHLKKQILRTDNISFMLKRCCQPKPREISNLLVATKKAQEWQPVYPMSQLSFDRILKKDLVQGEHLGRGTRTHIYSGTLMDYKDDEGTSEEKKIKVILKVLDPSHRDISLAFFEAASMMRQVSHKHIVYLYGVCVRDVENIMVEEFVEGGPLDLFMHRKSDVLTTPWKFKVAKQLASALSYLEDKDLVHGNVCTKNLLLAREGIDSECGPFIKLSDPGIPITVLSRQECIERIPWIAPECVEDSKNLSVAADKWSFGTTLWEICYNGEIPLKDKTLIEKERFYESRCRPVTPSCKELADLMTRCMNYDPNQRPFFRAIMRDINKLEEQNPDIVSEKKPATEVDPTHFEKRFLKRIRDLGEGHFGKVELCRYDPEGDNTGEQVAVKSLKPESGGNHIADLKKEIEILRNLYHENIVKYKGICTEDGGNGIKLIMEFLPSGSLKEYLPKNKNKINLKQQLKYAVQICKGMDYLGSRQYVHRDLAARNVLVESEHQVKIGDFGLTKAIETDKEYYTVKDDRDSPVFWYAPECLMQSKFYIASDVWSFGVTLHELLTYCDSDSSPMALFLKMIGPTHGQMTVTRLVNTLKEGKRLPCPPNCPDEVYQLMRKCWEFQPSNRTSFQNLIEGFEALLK
The target in the next test is KIT (Homo sapiens, UniProt P10721). The conditions noted are these: (μM)=Km app.
KIT, sequence (P10721 whole entry): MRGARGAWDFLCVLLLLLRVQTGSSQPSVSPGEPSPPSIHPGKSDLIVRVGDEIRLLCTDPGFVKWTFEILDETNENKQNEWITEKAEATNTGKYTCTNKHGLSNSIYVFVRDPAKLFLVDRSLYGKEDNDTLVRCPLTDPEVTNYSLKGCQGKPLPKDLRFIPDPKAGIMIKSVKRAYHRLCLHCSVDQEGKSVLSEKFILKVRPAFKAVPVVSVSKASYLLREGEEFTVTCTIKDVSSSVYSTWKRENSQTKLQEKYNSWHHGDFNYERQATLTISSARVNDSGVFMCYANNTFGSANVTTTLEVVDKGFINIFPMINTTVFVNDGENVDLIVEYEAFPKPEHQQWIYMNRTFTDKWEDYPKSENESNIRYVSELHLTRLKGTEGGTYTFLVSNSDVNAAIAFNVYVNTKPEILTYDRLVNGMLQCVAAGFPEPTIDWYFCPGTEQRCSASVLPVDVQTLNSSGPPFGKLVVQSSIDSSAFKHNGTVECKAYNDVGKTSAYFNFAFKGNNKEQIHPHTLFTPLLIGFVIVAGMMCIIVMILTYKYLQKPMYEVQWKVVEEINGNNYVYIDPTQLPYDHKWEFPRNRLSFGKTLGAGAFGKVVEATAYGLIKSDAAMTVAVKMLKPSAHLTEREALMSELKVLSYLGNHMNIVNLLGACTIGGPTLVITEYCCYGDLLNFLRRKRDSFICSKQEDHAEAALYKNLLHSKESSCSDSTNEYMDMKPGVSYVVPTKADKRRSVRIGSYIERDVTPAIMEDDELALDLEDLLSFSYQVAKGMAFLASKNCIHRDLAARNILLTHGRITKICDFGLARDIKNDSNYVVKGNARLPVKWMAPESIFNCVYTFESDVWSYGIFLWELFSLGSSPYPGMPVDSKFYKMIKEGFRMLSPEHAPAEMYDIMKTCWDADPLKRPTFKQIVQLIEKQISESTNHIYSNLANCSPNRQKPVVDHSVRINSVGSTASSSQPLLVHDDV
A further test has as its target T4, LYN A (Homo sapiens, UniProt P07948).
T4 construct: isoform A
The conditions noted are these: (μM)=Km app.

For the next test, the target named is MAP3K8 (COT) (Homo sapiens, UniProt P41279). The conditions noted are these: (μM)=100.
MAP3K8 (COT), sequence (P41279 whole entry): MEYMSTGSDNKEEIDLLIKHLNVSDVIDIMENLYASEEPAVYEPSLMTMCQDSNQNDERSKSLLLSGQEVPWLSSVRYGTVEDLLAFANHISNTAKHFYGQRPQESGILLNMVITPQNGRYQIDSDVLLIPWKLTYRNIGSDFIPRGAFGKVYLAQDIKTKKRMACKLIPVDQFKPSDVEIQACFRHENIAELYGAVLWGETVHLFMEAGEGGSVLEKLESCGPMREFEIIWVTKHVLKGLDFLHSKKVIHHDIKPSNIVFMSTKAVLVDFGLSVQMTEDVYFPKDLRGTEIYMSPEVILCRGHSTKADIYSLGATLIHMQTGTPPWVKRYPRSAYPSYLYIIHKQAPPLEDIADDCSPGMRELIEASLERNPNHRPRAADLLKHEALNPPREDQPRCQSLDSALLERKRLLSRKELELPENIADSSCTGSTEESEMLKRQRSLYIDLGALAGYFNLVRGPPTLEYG
The target of the next test is MARK3 (Homo sapiens, UniProt P27448). The conditions noted are these: (μM)=Km app.
MARK3, sequence (P27448 whole entry): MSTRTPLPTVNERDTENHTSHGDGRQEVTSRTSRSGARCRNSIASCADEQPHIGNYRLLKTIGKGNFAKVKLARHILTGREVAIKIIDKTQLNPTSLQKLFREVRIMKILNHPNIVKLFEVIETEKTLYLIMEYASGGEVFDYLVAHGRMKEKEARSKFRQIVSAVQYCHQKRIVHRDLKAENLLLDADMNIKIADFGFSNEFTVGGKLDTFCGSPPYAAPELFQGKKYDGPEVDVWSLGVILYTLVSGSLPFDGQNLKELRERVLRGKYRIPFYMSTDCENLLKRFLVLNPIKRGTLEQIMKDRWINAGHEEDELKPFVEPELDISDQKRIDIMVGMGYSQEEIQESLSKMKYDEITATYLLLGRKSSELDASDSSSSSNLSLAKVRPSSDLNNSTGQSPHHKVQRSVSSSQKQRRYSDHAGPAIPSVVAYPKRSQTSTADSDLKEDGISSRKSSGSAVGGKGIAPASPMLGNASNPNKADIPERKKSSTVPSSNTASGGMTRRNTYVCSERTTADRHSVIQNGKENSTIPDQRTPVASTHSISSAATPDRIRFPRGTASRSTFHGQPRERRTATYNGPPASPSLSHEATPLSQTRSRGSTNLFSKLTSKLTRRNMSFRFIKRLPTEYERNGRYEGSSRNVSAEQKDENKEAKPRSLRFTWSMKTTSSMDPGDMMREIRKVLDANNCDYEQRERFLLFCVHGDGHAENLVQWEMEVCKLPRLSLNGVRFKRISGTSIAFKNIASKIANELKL

Our source for the inhibition values is publication PMC7613998, “Development of selective inhibitors of phosphatidylinositol 3-kinase C2α” (Nature Chemical Biology, 2022).

T4 sequence (P07948 whole entry, canonical isoform): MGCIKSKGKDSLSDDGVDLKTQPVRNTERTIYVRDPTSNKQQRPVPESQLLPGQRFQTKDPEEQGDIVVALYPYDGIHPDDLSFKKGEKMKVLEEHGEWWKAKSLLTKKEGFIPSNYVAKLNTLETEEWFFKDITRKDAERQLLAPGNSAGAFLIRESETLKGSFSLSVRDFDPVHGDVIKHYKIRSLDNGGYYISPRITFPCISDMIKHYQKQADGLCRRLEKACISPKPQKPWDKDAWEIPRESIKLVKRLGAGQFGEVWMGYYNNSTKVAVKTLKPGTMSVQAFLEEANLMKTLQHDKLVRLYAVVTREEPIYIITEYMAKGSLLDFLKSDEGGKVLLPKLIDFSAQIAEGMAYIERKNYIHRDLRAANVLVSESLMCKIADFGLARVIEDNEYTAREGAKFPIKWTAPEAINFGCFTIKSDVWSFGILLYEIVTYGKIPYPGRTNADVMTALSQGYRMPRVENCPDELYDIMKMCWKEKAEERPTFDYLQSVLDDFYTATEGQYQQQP

For `O=C(CSc1nc2nccnc2c(=O)n1CCc1ccccc1)Nc1nccs1` [compound 1, PITCOIN1], the inhibition at 1 µM against ACVR1B (ALK4) was 3.41%; against AURKA (Aurora A), 0.058%; on IKBKB (IKK beta), 8.34%; at JAK1, 6.58%; against KIT it was -11.3%; against LYN A it was 2.62%. For the same compound, the figures for the inhibition at 1 µM against MAP3K8 (COT) and against MARK3 were 1.68% and 2.69%, respectively. For the same compound, the inhibition at 3 µM is 5.04% against ACVR1B (ALK4); 0.515% against AURKA (Aurora A); 4.24% on IKBKB (IKK beta); 2.72% at JAK1; 5.95% against KIT; 1.7% at LYN A. For the same compound, the inhibition at 3 µM on MAP3K8 (COT) is -2.27%; against MARK3 it was 11.3%. The inhibition at 10 µM was 3.29% on ACVR1B (ALK4); -0.231% at AURKA (Aurora A); 4.15% against IKBKB (IKK beta); 0.0941% against JAK1; -5.32% at KIT; 2.95% on LYN A. In addition, the inhibition at 10 µM came out at 4.32% on MAP3K8 (COT) and 0.672% on MARK3.

On to `CS(=O)(=O)Nc1cccc(-c2csc(NC(=O)CSc3nc4nccnc4c(=O)n3CCc3ccccc3)n2)c1` [compound 3, PITCOIN3], for which the inhibition at 1 µM on ACVR1B (ALK4) was 5.04%; at AURKA (Aurora A) it was 5.01%; against IKBKB (IKK beta), 3.7%; on JAK1, 2.76%; against KIT it was -9.5%; against LYN A it was 1.87%. The values for the inhibition at 1 µM against MAP3K8 (COT) and against MARK3 were 2.37% and 1.74%, respectively. The inhibition at 3 µM amounted to 9.13% against ACVR1B (ALK4); 0.816% against AURKA (Aurora A); 14.3% at IKBKB (IKK beta); 4.25% on JAK1; 14.5% on KIT; 2.86% at LYN A. The inhibition at 3 µM against MAP3K8 (COT) was 11.4%; against MARK3 it was 4.94%. The inhibition at 10 µM is 4.09% against ACVR1B (ALK4); 0.802% on AURKA (Aurora A); 12.2% at IKBKB (IKK beta); 0.516% on JAK1; -3.62% against KIT; 1.59% at LYN A. Besides, the figures for the inhibition at 10 µM at MAP3K8 (COT) and on MARK3 were 4.89% and 6.84%, respectively.

Broadly, the inhibition is the relative decrease from the control value, in per cent.
